Here are results for 10 compounds from PubChem BioAssay AID1259407 (Chemical Carcinogenesis Research Information System (CCRIS), 2018).

Calls of active or inactive are those of the source. The rule behind the calls is not given here.

This data set deals with CCRIS mutagenicity, Ames/micronucleus/aberration tests. Briefly: CCRIS mutagenicity studies.
Setting [1] is: Test System: AMES SALMONELLA TYPHIMURIUM, Strain/Indicator: TA102, Metabolic Activation: NONE, Method: PREINCUBATION
Where [2] appears, read: Test System: AMES SALMONELLA TYPHIMURIUM, Strain/Indicator: TA98, Metabolic Activation: NONE, Method: STANDARD PLATE.
Where [3] appears, read: Test System: AMES SALMONELLA TYPHIMURIUM, Strain/Indicator: TA100, Metabolic Activation: NONE, Method: STANDARD PLATE.
Setting [4] is: Test System: AMES SALMONELLA TYPHIMURIUM, Strain/Indicator: TA98, Metabolic Activation: NONE, Method: PREINCUBATION
Setting [5] is: Test System: AMES SALMONELLA TYPHIMURIUM, Strain/Indicator: TA98, Metabolic Activation: RAT LIVER S-9, PHENOBARBITAL AND BETA-NAPHTHOFLAVONE, Method: PREINCUBATION
The mark [6] stands for this setting: Test System: AMES SALMONELLA TYPHIMURIUM, Strain/Indicator: TA100, Metabolic Activation: NONE, Method: PREINCUBATION
[7] abbreviates: Test System: AMES SALMONELLA TYPHIMURIUM, Strain/Indicator: TA100, Metabolic Activation: RAT LIVER S-9, PHENOBARBITAL AND BETA-NAPHTHOFLAVONE, Method: PREINCUBATION
Where [8] appears, read: Test System: AMES SALMONELLA TYPHIMURIUM, Strain/Indicator: TA1535, Metabolic Activation: NONE, Method: PREINCUBATION
Where [9] appears, read: Test System: AMES SALMONELLA TYPHIMURIUM, Strain/Indicator: TA1535, Metabolic Activation: RAT LIVER S-9, PHENOBARBITAL AND BETA-NAPHTHOFLAVONE, Method: PREINCUBATION
The mark [10] stands for this setting: Test System: AMES SALMONELLA TYPHIMURIUM, Strain/Indicator: TA1537, Metabolic Activation: NONE, Method: PREINCUBATION
[11] abbreviates: Test System: AMES SALMONELLA TYPHIMURIUM, Strain/Indicator: TA1537, Metabolic Activation: RAT LIVER S-9, PHENOBARBITAL AND BETA-NAPHTHOFLAVONE, Method: PREINCUBATION
Setting [12] is: Test System: E.COLI, Strain/Indicator: WP2UVRA, Metabolic Activation: NONE, Method: PREINCUBATION
Setting [13] is: Test System: E.COLI, Strain/Indicator: WP2UVRA, Metabolic Activation: RAT LIVER S-9, PHENOBARBITAL AND BETA-NAPHTHOFLAVONE, Method: PREINCUBATION

For the compound `Nc1nc(-c2ccc([N+](=O)[O-])o2)cs1`, the mutagenic call by setting is: (Test System: AMES SALMONELLA TYPHIMURIUM, Strain/Indicator: TA100, Metabolic Activation: RAT, LIVER, S-9, KC500 OR PHENOBARBITAL, Method: LIQUID SUSPENSION) “active; positive”; (Test System: E. COLI WP2, Strain/Indicator: WP2, Metabolic Activation: NONE, Method: SPOT) “active; positive”.

In the case of `CCCCOC(=O)CCC`, the mutagenic call is, setting by setting: (Test System: AMES SALMONELLA TYPHIMURIUM, Strain/Indicator: TA97, Metabolic Activation: NONE, Method: PREINCUBATION) “inactive; negative”; (Test System: AMES SALMONELLA TYPHIMURIUM, Strain/Indicator: TA97, Metabolic Activation: RAT, LIVER, S-9, AROCLOR 1254, Method: PREINCUBATION) “inactive; negative”; under setting [1], “inactive; negative”; (Test System: AMES SALMONELLA TYPHIMURIUM, Strain/Indicator: TA102, Metabolic Activation: RAT, LIVER, S-9, AROCLOR 1254, Method: PREINCUBATION) “inactive; negative”.

Consider `O=C(c1ccc(F)cc1)[C@@H]1O[C@@H]1c1ccccc1`, for which the mutagenic call is “inactive; negative” under setting [2]; “inactive; negative” (Test System: AMES SALMONELLA TYPHIMURIUM, Strain/Indicator: TA98, Metabolic Activation: RAT, LIVER, S-9, AROCLOR 1254, Method: STANDARD PLATE); “active; positive” under setting [3]; “inactive; negative” (Test System: AMES SALMONELLA TYPHIMURIUM, Strain/Indicator: TA100, Metabolic Activation: RAT, LIVER, S-9, AROCLOR 1254, Method: STANDARD PLATE).

Turning to `CCCCCCCCBr`, the mutagenic call is, setting by setting: under setting [4], “inactive; negative”; under setting [5], “inactive; negative”; under setting [6], “inactive; negative”; under setting [7], “inactive; negative”; under setting [1], “inactive; negative”; (Test System: AMES SALMONELLA TYPHIMURIUM, Strain/Indicator: TA102, Metabolic Activation: RAT LIVER S-9, PHENOBARBITAL AND BETA-NAPHTHOFLAVONE, Method: PREINCUBATION) “inactive; negative”. Besides, the mutagenic call (Test System: AMES SALMONELLA TYPHIMURIUM, Strain/Indicator: TA104, Metabolic Activation: NONE, Method: PREINCUBATION) was “inactive; negative”; the mutagenic call (Test System: AMES SALMONELLA TYPHIMURIUM, Strain/Indicator: TA104, Metabolic Activation: RAT LIVER S-9, PHENOBARBITAL AND BETA-NAPHTHOFLAVONE, Method: PREINCUBATION) is “inactive; negative”; the mutagenic call under setting [8] is “inactive; negative”; the mutagenic call under setting [9] is “inactive; negative”; the mutagenic call under setting [10] is “inactive; negative”; the mutagenic call under setting [11] was “inactive; negative”. Moreover, the mutagenic call was “inactive; negative” (Test System: E.COLI, Strain/Indicator: WP2UVRA/PKM101, Metabolic Activation: NONE, Method: PREINCUBATION); “inactive; negative” (Test System: E.COLI, Strain/Indicator: WP2UVRA/PKM101, Metabolic Activation: RAT LIVER S-9, PHENOBARBITAL AND BETA-NAPHTHOFLAVONE, Method: PREINCUBATION); “inactive; negative” under setting [12]; “inactive; negative” under setting [13].

For `CC(C)CCC[C@@H](C)[C@H]1CC[C@H]2[C@@H]3CC=C4C[C@@H](O)CC[C@]4(C)[C@H]3CC[C@]12C`, the mutagenic call (Test System: CHINESE HAMSTER V-79, Strain/Indicator: V-79/OUABAIN, Metabolic Activation: NONE) was “inactive; negative”.

For `CN(C)CCNC(=O)c1cccc2c1ncc1ccccc12`, where the note is “Test System: AMES SALMONELLA TYPHIMURIUM, Strain/Indicator: TA1537, Metabolic Activation: NONE, Method: STANDARD PLATE”, the mutagenic call is “active; positive”.

On to `N=C(N)N`, for which the mutagenic call under setting [4] is “inactive; negative”; the mutagenic call under setting [5] was “inactive; negative”; the mutagenic call under setting [6] is “inactive; negative”; the mutagenic call under setting [7] was “inactive; negative”; the mutagenic call under setting [8] was “inactive; negative”; the mutagenic call under setting [9] is “inactive; negative”. In addition, the mutagenic call runs as follows: under setting [10], “inactive; negative”; under setting [11], “inactive; negative”; (Test System: AMES SALMONELLA TYPHIMURIUM, Strain/Indicator: TA1538, Metabolic Activation: NONE, Method: PREINCUBATION) “inactive; negative”; (Test System: AMES SALMONELLA TYPHIMURIUM, Strain/Indicator: TA1538, Metabolic Activation: RAT LIVER S-9, PHENOBARBITAL AND BETA-NAPHTHOFLAVONE, Method: PREINCUBATION) “inactive; negative”; under setting [12], “inactive; negative”; under setting [13], “inactive; negative”.

For the compound `OC1C=CC=CC1O` (configuration not stated), the mutagenic call under setting [2] was “inactive; negative”; the mutagenic call (Test System: AMES SALMONELLA TYPHIMURIUM, Strain/Indicator: TA98, Metabolic Activation: RAT, LIVER, S-9, PHENOBARBITAL, Method: STANDARD PLATE) was “inactive; negative”; the mutagenic call under setting [6] is “inactive; negative”; the mutagenic call under setting [3] was “inactive; negative”; the mutagenic call (Test System: AMES SALMONELLA TYPHIMURIUM, Strain/Indicator: TA100, Metabolic Activation: RAT, LIVER, S-9, PHENOBARBITAL, Method: PREINCUBATION) was “active; positive”; the mutagenic call (Test System: AMES SALMONELLA TYPHIMURIUM, Strain/Indicator: TA100, Metabolic Activation: RAT, LIVER, S-9, PHENOBARBITAL, Method: STANDARD PLATE) was “active; positive”. Further, the mutagenic call runs as follows: (Test System: AMES SALMONELLA TYPHIMURIUM, Strain/Indicator: TM677/8-AZAGUANINE, Metabolic Activation: NONE, Method: PREINCUBATION) “inactive; negative”; (Test System: AMES SALMONELLA TYPHIMURIUM, Strain/Indicator: TM677/8-AZAGUANINE, Metabolic Activation: NONE, Method: STANDARD PLATE) “active; positive”; (Test System: AMES SALMONELLA TYPHIMURIUM, Strain/Indicator: TM677/8-AZAGUANINE, Metabolic Activation: RAT, LIVER, S-9, PHENOBARBITAL, Method: PREINCUBATION) “active; positive”.

Turning to `Cc1ccc2cc3c(ccc4ccccc43)c3c2c1CC3OS(=O)(=O)O` (configuration not stated), the mutagenic call is “active; positive” under setting [4] and “active; positive” under setting [6].

Turning to `OC1Cc2cc3cccc4ccc5ccc1c2c5c43` (configuration not stated), for the setting “Test System: AMES SALMONELLA TYPHIMURIUM, Strain/Indicator: TA98, Metabolic Activation: HUMAN, LIVER, CYTOSOL, PAPS, Method: PREINCUBATION”, the mutagenic call is “active; positive”.
